Measured values: US6576620B2, “Method of identifying partial adenosine A1 receptor agonists” (CV Therapeutics, Inc., priority 1999, dated 2003)
Where two headings read alike, the source gives them in different places.

Assays:
A1-AdoR [1] = biological target: T1, A1-AdoR (Cavia porcellus, UniProt P47745); experiment: 3H-CPX binding to guinea pig forebrain membranes; conditions: for IC50: IC50 to reduce the binding of 3H-CPX
T1 sequence (P47745 1-326): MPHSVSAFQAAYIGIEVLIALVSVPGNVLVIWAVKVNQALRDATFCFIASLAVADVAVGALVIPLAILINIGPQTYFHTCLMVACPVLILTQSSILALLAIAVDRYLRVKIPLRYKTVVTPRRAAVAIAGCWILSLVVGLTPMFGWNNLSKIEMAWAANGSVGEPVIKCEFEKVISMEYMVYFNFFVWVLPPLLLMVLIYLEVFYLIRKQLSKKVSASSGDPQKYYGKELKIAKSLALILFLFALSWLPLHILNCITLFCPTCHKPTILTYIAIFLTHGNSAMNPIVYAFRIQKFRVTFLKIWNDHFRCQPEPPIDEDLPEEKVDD
Experimental: (§1) Membranes containing A1-AdoRs for use in radioligand binding assays were prepared from guinea pig cerebral cortex or from rat isolated epididymal adipocytes. Freshly-isolated guinea pig brain cortical tissue was homogenized in ice-cold 50 mM Tris-HCl buffer (pH 7.4) using six up and down strokes of an ice-chilled Potter-Elvejhem tissue grinder and a motor-driven teflon™ pestle. A crude membrane preparation was isolated by centrifugation of the homogenate at 15,000×g for 20 min at 4° C. The membrane pellet was resuspended in fresh Tris buffer and pelleted again by centrifugation. The final membrane pellet was suspended in Tris buffer to achieve a protein content of 1.1-1.4 mg/ml and divided into aliquots for storage at −80° C. until needed for assays. Adipocytes were isolated from 10 epididymal fat pads and suspended in a homogenization buffer (pH 7.3) containing 250 mM sucrose, 20 mM HEPES, 1 mM EDTA, 10 μg/ml leupeptin, and 5 μg/ml pepstatin. Cells were homogenized using an ice-chilled Potter-Elvehjem tissue grinder and a motor-driven teflon™ pestle. Cell membranes were separated from fat by centrifugation of the homogenate for 5 min at 1000×g at 4° C. The infranate below the fat cake was removed and placed in a centrifuge tube. Membranes were collected by centrifugation of the infranate for 30 min at 20,000×g at 4° C. Membranes were resuspended in buffer (pH 7.1 at room temperature) containing 154 mM NaCl, 10 mM MgCl2, 50 mM HEPES, 1 mM EDTA, 5 μg/ml leupeptin, 5 μg/ml pepstatin, and 5 U/ml adenosine deaminase, and stored as aliquots in liquid nitrogen until needed for assays.
(§2) The binding affinity of experimental agonists high and low affinity states of the A1-ADOR was determined. […] The presence of GTP reduces the availability of high affinity binding sites on the GPCR. Thus, the method allows for a discrimination between high and low binding affinities.
(§3) After a 3 hour incubation at room temperature. the reaction was terminated by diluting the samples with ice-cold Tris buffer and immediate collection of membranes onto glass-fiber filters (Schleicher and Schuell, Keene, N.H.) by vacuum filtration using a cell harvester (Brandel, Gaithersburg, Md.). Filters were washed quickly three times with ice-cold buffer to remove unbound radioligand. Filter discs containing trapped membranes and bound radioligand were placed in 4 ml of scintillation cocktail and radioactivity of samples was quantified using a liquid scintillation counter. […] Results of radioligand binding assays were analyzed using the Prism program from GraphPad (San Diego, Calif.).

A1-AdoR [2] = biological target: T2, A1-AdoR (Rattus norvegicus, UniProt P25099); experiment: 3H-CPX binding to rat adipocyte membranes; conditions: for IC50: IC50 to reduce the binding of 3H-CPX; for Ki: Ki for reduction of 3H-CPX binding
T2 sequence (P25099 1-326): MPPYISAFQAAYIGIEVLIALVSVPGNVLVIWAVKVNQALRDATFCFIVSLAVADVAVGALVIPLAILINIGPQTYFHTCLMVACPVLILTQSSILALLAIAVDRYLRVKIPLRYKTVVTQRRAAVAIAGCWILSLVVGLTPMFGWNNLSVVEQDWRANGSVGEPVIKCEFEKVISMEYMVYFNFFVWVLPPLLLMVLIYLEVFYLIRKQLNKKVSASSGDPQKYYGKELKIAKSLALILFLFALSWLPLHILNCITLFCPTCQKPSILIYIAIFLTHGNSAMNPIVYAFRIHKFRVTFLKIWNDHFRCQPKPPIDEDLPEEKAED
Experimental: as §1, §2, §3

[3] = tested on: guinea pig isolated heart; experiment: Coronary conductance, isolated heart; conditions: for EC50: Cavia porcellus; for maximal increase of coronary conductance: this study, Compound 6 at 100 μM
Experimental: Coronary perfusion pressure (CPP) was measured using a pressure transducer, connected to the aortic cannula via a T-connector positioned approximately 3 cm above the heart. Coronary perfusion pressure was monitored throughout the experiment and recorded either on a chart recorder (Gould Recorder 2200S) or a computerized recording system (PowerLab/4S, ADInstruments Pty Ltd, Australia). Only hearts with CPP ranging from 60 to 85 mmHg (in the absence of drugs) were used in the study. Coronary conductance (in ml/min/mmHg) was calculated as the ratio between coronary perfusion rate (10 ml/min) and coronary perfusion pressure.
Guinea pigs (Hartley) of either sex weighing 300-350 g were anaesthetized with methoxyflurane and killed by decapitation. The chest was cut open and the heart was removed quickly and rinsed in ice-cold modified Krebs-Henseleit (K-H) solution. The contents of the modified K-H solution were (in mM): NaCl 117.9, KCl 4.8, CaCl2 2.5, MgSO2 1.18, KH2PO4 1.2, Na2 EDTA 0.5, ascorbic acid 0.14, dextrose 5.5, pyruvic acid (sodium salt) 2.0, and NaHCO3 25. The K-H solution was continuously gassed with 95% oxygen and 5% CO2, and the pH was adjusted to a value of 7.4. To perfuse the heart by the Langendorff method, the transected aorta was slid onto a glass cannula and secured by a ligature. Retrograde perfusion of the aorta was initiated immediately at a constant flow of 10 ml min-′ with modified K-H solution warmed to 36.0±0.5° C. A side port in the cannula was used to connect the perfusion line to a Gould pressure transducer for measurement of coronary perfusion pressure. Coronary perfusion pressure was continuously recorded on a strip chart (Gould RS3400, Cleveland, Ohio) throughout each experiment. Coronary conductance (in ml min^−1 mmHg^−1) was calculated as the ratio of coronary flow (10 ml min^−1) to perfusion pressure (mm Hg). To facilitate the exit of fluid from the left ventricle, the leaflets of the mitral valve were trimmed with fine spring-handled scissors. When appropriate, hearts were paced at a constant rate using external electrodes. After completion of dissection and instrumentation (see below) for measurement of either atrial rate, stimulus-to-His bundle (S-H) interval, monophasic action potentials, or coronary perfusion pressure, each heart was allowed to equilibrate for 20-40 min before the administration of drug. Experimental interventions were always preceded and followed by control measurements. Criteria for exclusion of hearts from study were (1) a coronary perfusion pressure of less than 50 mm Hg, (2) absence of a stable coronary perfusion pressure during the equilibration period, and (3) inability to pace a heart at a constant rate throughout an experiment.

[4] = Ki for reduction of 3H-CPX binding, absence of GTP

Compound: CNC(=O)OC[C@H]1OC(n2cnc3c(N[C@@H]4CCOC4)ncnc32)[C@H](O)[C@@H]1O (stereo partly drawn) [Compound 6 of Example 2, [(5-{6-[((3R)oxolan-3-yl)amino]purin-9-yl}(3 S,2R,4R)-3,4-dihydroxyoxolan-2-yl)methoxy]-N-methylcarboxamide]
- IC50 (A1-AdoR [1]; presence of 1 mM GTP): 2900 nM
- Ki (A1-AdoR [1]; [4]): 1800 nM
- Ki (A1-AdoR [1]; Ki for reduction of 3H-CPX binding, presence of 1 mM GTP): 2100 nM
- Hill slope (A1-AdoR [1]; absence of GTP): 0.79
- Hill slope (A1-AdoR [1]; presence of 1 mM GTP): 0.99
- IC50 (A1-AdoR [2]; absence of GTP): 0.18 µM
- IC50 (A1-AdoR [2]; presence of 1 mM GTP): 9.5 µM
- IC50 (A1-AdoR [2]; presence of 1 mM GTP and 0.1 mM N-ethylmaleimide): 15 µM
- Ki (A1-AdoR [2]; absence of GTP): 62 nM
- Ki (A1-AdoR [2]; presence of 1 mM GTP): 3300 nM
- Hill slope (A1-AdoR [2]; absence of GTP): 0.87
- IC50 with GTP and N-ethylmaleimide relative to GTP alone (A1-AdoR [2]; adipocyte membranes): 1.6 fold
- Hill slope (A1-AdoR [2]; presence of 1 mM GTP): 1.0
- difference of IC50 in absence and presence of GTP (A1-AdoR [2]; rat, adipocyte membranes): 53 fold
- coronary conductance ([3]; 10 μM compound, control 0.17±0.01): 0.185±0.01 ml min^−1 mmHg^−1
- coronary conductance ([3]; 100 μM compound, control 0.17±0.01): 0.26±0.02 ml min^−1 mmHg^−1
- EC50 ([3]; estimate may be falsely low, limited solubility, read-out: concentration of half-maximal response (EC50), increase of coronary conductance): 31 µM
- effect on coronary conductance ([3]; concentrations ≦10 μM): did not significantly change the coronary conductance
- maximal increase of coronary conductance [3]: 0.09±0.01 ml min^−1 mmHg^−1

Compound: OC[C@H]1O[C@@H](n2cnc3c(NC4CCCC4)ncnc32)[C@H](O)[C@@H]1O [CPA, N^6-cyclopentyladenosine, reference compound]
- IC50 (A1-AdoR [1]; absence of GTP): 2.5 nM
- IC50 (A1-AdoR [1]; presence of 1 mM GTP): 28 nM
- Ki (A1-AdoR [1]; [4]): 1.7 nM
- Ki (A1-AdoR [1]; Ki, high affinity sites, presence of 1 mM GTP, 2-site binding model): 10.4 nM
- Hill slope (A1-AdoR [1]; absence of GTP): 1.2
- difference of IC50 in absence and presence of 1 mM GTP (A1-AdoR [1]; forebrain membranes): 11 fold
- Hill slope (A1-AdoR [1]; presence of 1 mM GTP): 0.53
- sites having a high affinity (A1-AdoR [1]; presence of 1 mM GTP, 2-site binding model): 73%
- Ki (A1-AdoR [1]; read-out: Ki, low affinity sites, presence of 1 mM GTP, 2-site binding model): 882 nM
- Hill slope (A1-AdoR [2]; absence of GTP): 0.88
- difference of IC50 in absence and presence of GTP (A1-AdoR [2]; adipocyte membranes): 10 fold
- Hill slope (A1-AdoR [2]; presence of 1 mM GTP): 1.0
- coronary conductance ([3]; CPA maximal, control 0.16±0.01): 0.33±0.01 ml min^−1 mmHg-^1
- EC50 ([3]; read-out: concentration of half-maximal increase of coronary conductance): 0.071 µM
- maximal increase of coronary conductance [3]: 0.17±0.02 ml min^−1 mmHg^−1
